Assay results taken from patent US7893289B2, “Adamantanamines and neramexane salts of thiomolybdic and thiotungstic acids” (SSV Therapeutics, Inc., priority 2007, dated 2011).

Experiments:
[1] = test system: NMDA receptor; assay: Blockage of NMDA-induced seizure activity and lethality in mice pretreated with the antagonist; assay type: in vivo; conditions: for mice survived following NMDA induced seizures: male CD-1 mice, groups of 5, sc 20 min before NMDA 200 mg/kg IP, 4 h observation, highest equivalent memantine dose (memantine hydrochloride 30 mg/kg sc); for protection in the NMDA-induced seizure/mortality test: sc, Example 4 at equivalent memantine dose, Examples 1 and 2 administered as suspensions
From the text: Briefly, the test measures blockage of seizure activity and lethality in mice produced by the administration of NMDA when pretreated with the antagonists. [see Leander, J. D., et al., Brain Res. 448, 115-120 (1988) and Parsons, C. G., et al., Neuropharmacol 34, 1239-1258; (1995)].
Test protocol: Groups of 5 male CD-1 mice weighing 24±2 g were used. Male CD-1 (Crl.) mice were provided by BioLasco Taiwan (under Charles River Laboratories Technology License). Space allocations for animals were as follows: 29×18×13 cm for 5 mice. Mice were maintained in a controlled temperature (22° C.-24° C.) and humidity (60%-80%) environment with 12 h light/dark cycles for at least one week in MDS Pharma Services—Taiwan Laboratory prior to use. Free access to standard lab chow for mice [MF-18 (Oriental Yeast Co., Ltd., Japan)] and RO water was granted. [All aspects of this work including housing, experimentation and disposal of animals were performed in general accordance with the Guide for the Care and Use of Laboratory Animals (National Academy Press, Washington, D.C., 1996).]
Test substance was administered by subcutaneous (sc) injection 20 min before challenge with NMDA 200 mg/kg by intraperitoneal injection (IP). The animals were placed individually in glass jars and observed over a period of 4 h for presence of clonic convulsions, tonic convulsions and mortality. The onset of clonic and tonic convulsions as well as death was recorded and incidence of clonic seizures, tonic seizures and death was reported. Inhibition of NMDA (200 mg/kg, IP)-induced tonic convulsions/mortality (mainly mortality) in more than 50 percent (>50%) of the 5 mice during the following 4 h indicates possible NMDA receptor antagonist activity. Memantine hydrochloride at 30 mg/kg sc was used as positive control.
The vehicle used for dissolution was 20% aqueous DMSO.

[2] = ambient conditions in air and humidity, after 50 days; cited from earlier work
[3] = Solubility in the dosing vehicle (20% aqueous DMSO); assay type: physicochemical

For `CC12CC3CC(C)(C1)CC([NH3+])(C3)C2.CC12CC3CC(C)(C1)CC([NH3+])(C3)C2.[S]=[Mo](=[S])([S-])[S-]` [Example 3, Bis(1-ammonium-3,5-dimethyladamantane) tetrathiomolybdate], the “more effective than memantine at an equivalent dose” value ([1]; NMDA-induced clonic seizures and mortality in mice, equivalent dose (30 mg)) was 40%, the “mice survived following NMDA induced seizures” value [1] was 4/5 and the “inhibition of NMDA-induced clonic seizures and mortality” value ([1]; mice, sc pretreatment at three doses, NMDA 200 mg/kg IP) was “in a dose dependent manner”. The time to seizures ([1]; mice, highest equivalent memantine dose, compared with memantine) was “notably prolonged” and the “protection from tonic seizures” value ([1]; mice, low, medium and high doses, without DMSO solvate, similar to the high dose of memantine) was “protected from tonic seizures”.
With `CC1(C)CC(C)(C)CC(C)([NH3+])C1.CC1(C)CC(C)(C)CC(C)([NH3+])C1.[S]=[Mo](=[S])([S-])[S-]` [Example 4, Bis(1-ammonium-1,3,3,5,5-pentamethylcyclohexane)tetrathiomolybdate] the “protection in the NMDA-induced seizure/mortality test” value ([1]; mice) was “complete protection”.
In the case of `[NH4+].[NH4+].[SH-].[SH-].[S]=[Mo]=[S]` [TM, diammonium tetrathiomolybdate], the loss in activity [2] is listed as roughly 55%.
In the case of `CC12CC3CC(C)(C1)CC(N)(C3)C2` [memantine, 1-amino-3,5-dimethyladamantane, reference compound], the “mice survived following NMDA induced seizures” value [1] is reported as 5/5.
In the case of “Bis(1-methylammoniumadamantane) tetrathiomolybdate [Example 2]”, the “protection in the NMDA-induced seizure/mortality test” value ([1]; mice) is reported as “not protective” and the “solubility in the vehicle” value [3] is reported as “inadequate solubility”.
